Measured values published in the supplement of paper PMC11208160.

assay: recombinant UMI read abundance after kanamycin selection (control-corrected) (log10(CPM+1)); higher = more efficient recombination; extreme values may be limits of the assay; sequences stand for … in AGTGCAGAGAAAATCGGCCAGTTTTCTCTGCCTGCAGTCCGCATGCCGTGGGACCCCTTGGGTTCTAACCTGTTGCCTAGATTTATGCAGCGGACTGCCTTTCTCCCAAAGTGATAAACCGG…AGGTTGGTTTCACT; site = the 11-nt donor
Summary of the method: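 Values, expressed as log10(CPM+1), derive from recombinant UMI counts converted to CPM, averaged across replicates and scaled by control-derived factors. Plating was with IPTG (0.07 mM) plus kanamycin or unselected, two replicates each. The screen pooled donor and donor-binding-loop pairs for the IS621 bridge recombinase in Escherichia coli.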
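Also: IS621 bridge recombinase in Escherichia coli cells against a fixed T5 target plasmid.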

With “CAGGCATCATGGACCGGTTTTCCCGGTAATCCGTATTTGTC (site CAGGCATCTGA)” as the sequence, how does the “recombinant UMI read abundance (log10)” value read?
The value was 2.76.

For “CAGGCGTCATGGACCGGTTTTCCCGGTAATCCGTATTTGGA (site CAGGCGTCTTC)”, which “recombinant UMI read abundance (log10)” value is on record?
Its value is 1.89.

Which “recombinant UMI read abundance (log10)” value does the source give for “CAGGGCCCATGGACCGGTTTTCCCGGTAATCCGTATTTGTG (site CAGGGCCCTCA)” here?
The value was 0.282.

Which “recombinant UMI read abundance (log10)” value does the source give for “CAGGGTGCATGGACCGGTTTTCCCGGTAATCCGTATTTGGT (site CAGGGTGCTAC)” here?
Its value is 1.49.

Which “recombinant UMI read abundance (log10)” value does the source give for “CAGTACACATGGACCGGTTTTCCCGGTAATCCGTATTTGCT (site CAGTACACTAG)” here?
The value was 2.43.

Which “recombinant UMI read abundance (log10)” value does the source give for “CAGTCAACATGGACCGGTTTTCCCGGTAATCCGTATTTGTG (site CAGTCAACTCA)” here?
Its value is 0.0625.

With “CAGTCGACATGGACCGGTTTTCCCGGTAATCCGTATTTGCG (site CAGTCGACTCA)” as the sequence, how does the “recombinant UMI read abundance (log10)” value read?
The value was 0.

For “CAGTCGACATGGACCGGTTTTCCCGGTAATCCGTATTTGCG (site CAGTCGACTCC)”, which “recombinant UMI read abundance (log10)” value is on record?
Its value is 0.

Which “recombinant UMI read abundance (log10)” value does the source give for “CAGTCGACATGGACCGGTTTTCCCGGTAATCCGTATTTGCG (site CAGTCGACTCG)” here?
Its value is 0.869.

For “CAGTCGACATGGACCGGTTTTCCCGGTAATCCGTATTTGCG (site CAGTCGACTCT)”, which “recombinant UMI read abundance (log10)” value is on record?
The value was 0.00924.

With “CAGTCGACATGGACCGGTTTTCCCGGTAATCCGTATTTGGC (site CAGTCGACTAC)” as the sequence, how does the “recombinant UMI read abundance (log10)” value read?
The value was 0.105.

For “CAGTCGACATGGACCGGTTTTCCCGGTAATCCGTATTTGGC (site CAGTCGACTCC)”, which “recombinant UMI read abundance (log10)” value is on record?
The value was 0.00601.

For “CAGTCGACATGGACCGGTTTTCCCGGTAATCCGTATTTGGC (site CAGTCGACTGC)”, which “recombinant UMI read abundance (log10)” value is on record?
The value was 1.37.

For “CAGTCGACATGGACCGGTTTTCCCGGTAATCCGTATTTGGC (site CAGTCGACTTC)”, which “recombinant UMI read abundance (log10)” value is on record?
Its value is 0.0416.

Which “recombinant UMI read abundance (log10)” value does the source give for “CAGTCGCCATGGACCGGTTTTCCCGGTAATCCGTATTTGGG (site CAGTCGACTCC)” here?
The value was 0.0111.

Which “recombinant UMI read abundance (log10)” value does the source give for “CAGTCGCCATGGACCGGTTTTCCCGGTAATCCGTATTTGGG (site CAGTCGCCTCC)” here?
Its value is 0.0028.

With “CAGTCGCCATGGACCGGTTTTCCCGGTAATCCGTATTTGGG (site CAGTCGGCTCC)” as the sequence, how does the “recombinant UMI read abundance (log10)” value read?
Its value is 0.0208.

With “CAGTCGCCATGGACCGGTTTTCCCGGTAATCCGTATTTGGG (site CAGTCGTCTCC)” as the sequence, how does the “recombinant UMI read abundance (log10)” value read?
The value was 0.

For “CAGTCGGCATGGACCGGTTTTCCCGGTAATCCGTATTTGCT (site CAGTCGGCTAG)”, which “recombinant UMI read abundance (log10)” value is on record?
The value was 0.438.

For “CAGTGGACATGGACCGGTTTTCCCGGTAATCCGTATTTGTG (site CAGTGGACTCA)”, which “recombinant UMI read abundance (log10)” value is on record?
Its value is 1.57.

Which “recombinant UMI read abundance (log10)” value does the source give for “CAGTTTACATGGACCGGTTTTCCCGGTAATCCGTATTTGCT (site CAGTTTACTAG)” here?
The value was 2.07.

With “CAGTTTACATGGACCGGTTTTCCCGGTAATCCGTATTTGCT (site CCGTTTACTAG)” as the sequence, how does the “recombinant UMI read abundance (log10)” value read?
The value was 0.978.

For “CAGTTTACATGGACCGGTTTTCCCGGTAATCCGTATTTGCT (site CGGTTTACTAG)”, which “recombinant UMI read abundance (log10)” value is on record?
Its value is 0.

With “CAGTTTACATGGACCGGTTTTCCCGGTAATCCGTATTTGCT (site CTGTTTACTAG)” as the sequence, how does the “recombinant UMI read abundance (log10)” value read?
Its value is 0.662.

Which “recombinant UMI read abundance (log10)” value does the source give for “CATACACCATGGACCGGTTTTCCCGGTAATCCGTATTTGTA (site CATACACCTTA)” here?
The value was 0.00749.

For “CATACAGCATGGACCGGTTTTCCCGGTAATCCGTATTTGTG (site CATACAGCTCA)”, which “recombinant UMI read abundance (log10)” value is on record?
Its value is 1.18.

With “CATAGCGCATGGACCGGTTTTCCCGGTAATCCGTATTTGTC (site CATAGCGCTGA)” as the sequence, how does the “recombinant UMI read abundance (log10)” value read?
Its value is 2.99.

For “CATAGTCCATGGACCGGTTTTCCCGGTAATCCGTATTTGAA (site CATAGTCCTTT)”, which “recombinant UMI read abundance (log10)” value is on record?
The value was 0.981.

With “CATCAGTCATGGACCGGTTTTCCCGGTAATCCGTATTTGGT (site CATCAGTCTAC)” as the sequence, how does the “recombinant UMI read abundance (log10)” value read?
Its value is 2.17.

Which “recombinant UMI read abundance (log10)” value does the source give for “CATCCATCATGGACCGGTTTTCCCGGTAATCCGTATTTGGG (site CATCCATCTCC)” here?
Its value is 0.0148.

With “CATCCCTCATGGACCGGTTTTCCCGGTAATCCGTATTTGTA (site CATCCCTCTTA)” as the sequence, how does the “recombinant UMI read abundance (log10)” value read?
Its value is 3.33.

Which “recombinant UMI read abundance (log10)” value does the source give for “CATCGTACATGGACCGGTTTTCCCGGTAATCCGTATTTGGT (site AGAGTGGCTTA)” here?
Its value is 0.00765.

Which “recombinant UMI read abundance (log10)” value does the source give for “CATCTGTCATGGACCGGTTTTCCCGGTAATCCGTATTTGGG (site CATCTGTCTCC)” here?
Its value is 0.559.

For “CATGACTCATGGACCGGTTTTCCCGGTAATCCGTATTTGTC (site CATGACTCTGA)”, which “recombinant UMI read abundance (log10)” value is on record?
Its value is 1.71.

With “CATGCACCATGGACCGGTTTTCCCGGTAATCCGTATTTGAC (site CATGCACCTGT)” as the sequence, how does the “recombinant UMI read abundance (log10)” value read?
Its value is 0.

Which “recombinant UMI read abundance (log10)” value does the source give for “CATGCAGCATGGACCGGTTTTCCCGGTAATCCGTATTTGCT (site CAAGCAGCTAG)” here?
The value was 0.856.

For “CATGCAGCATGGACCGGTTTTCCCGGTAATCCGTATTTGCT (site CACGCAGCTAG)”, which “recombinant UMI read abundance (log10)” value is on record?
Its value is 1.29.

Which “recombinant UMI read abundance (log10)” value does the source give for “CATGCAGCATGGACCGGTTTTCCCGGTAATCCGTATTTGCT (site CAGGCAGCTAG)” here?
Its value is 0.00853.

For “CATGCAGCATGGACCGGTTTTCCCGGTAATCCGTATTTGCT (site CATGCAGCTAG)”, which “recombinant UMI read abundance (log10)” value is on record?
The value was 1.97.

Which “recombinant UMI read abundance (log10)” value does the source give for “CATGCATCATGGACCGGTTTTCCCGGTAATCCGTATTTGCT (site CATGCATCTAG)” here?
Its value is 1.49.

With “CATGGATCATGGACCGGTTTTCCCGGTAATCCGTATTTGGA (site CATGGATCTTC)” as the sequence, how does the “recombinant UMI read abundance (log10)” value read?
The value was 2.32.

Which “recombinant UMI read abundance (log10)” value does the source give for “CATGTGACATGGACCGGTTTTCCCGGTAATCCGTATTTGAT (site CATGTGACTAT)” here?
The value was 2.03.

Which “recombinant UMI read abundance (log10)” value does the source give for “CATTATCCATGGACCGGTTTTCCCGGTAATCCGTATTTGCT (site AATTATCCTAG)” here?
Its value is 0.352.

For “CATTATCCATGGACCGGTTTTCCCGGTAATCCGTATTTGCT (site CATTATCCTAG)”, which “recombinant UMI read abundance (log10)” value is on record?
The value was 1.59.

With “CATTATCCATGGACCGGTTTTCCCGGTAATCCGTATTTGCT (site GATTATCCTAG)” as the sequence, how does the “recombinant UMI read abundance (log10)” value read?
The value was 0.

Which “recombinant UMI read abundance (log10)” value does the source give for “CATTATCCATGGACCGGTTTTCCCGGTAATCCGTATTTGCT (site TATTATCCTAG)” here?
Its value is 0.

For “CATTCGCCATGGACCGGTTTTCCCGGTAATCCGTATTTGAA (site CATTCGCCTTT)”, which “recombinant UMI read abundance (log10)” value is on record?
The value was 0.0116.

For “CATTCGTCATGGACCGGTTTTCCCGGTAATCCGTATTTGGC (site CATTCGTCTGC)”, which “recombinant UMI read abundance (log10)” value is on record?
Its value is 0.595.

Which “recombinant UMI read abundance (log10)” value does the source give for “CATTGAACATGGACCGGTTTTCCCGGTAATCCGTATTTGCC (site CATTGAACTGG)” here?
The value was 0.

Which “recombinant UMI read abundance (log10)” value does the source give for “CATTGGACATGGACCGGTTTTCCCGGTAATCCGTATTTGAC (site AATTGGACTGT)” here?
Its value is 0.565.

With “CATTGGACATGGACCGGTTTTCCCGGTAATCCGTATTTGAC (site CATTGGACTGT)” as the sequence, how does the “recombinant UMI read abundance (log10)” value read?
The value was 1.96.

For “CATTGGACATGGACCGGTTTTCCCGGTAATCCGTATTTGAC (site GATTGGACTGT)”, which “recombinant UMI read abundance (log10)” value is on record?
The value was 0.

With “CATTGGACATGGACCGGTTTTCCCGGTAATCCGTATTTGAC (site TATTGGACTGT)” as the sequence, how does the “recombinant UMI read abundance (log10)” value read?
The value was 0.

With “CCAAAACCATGGACCGGTTTTCCCGGTAATCCGTATTTGAG (site CCAAAACCTCT)” as the sequence, how does the “recombinant UMI read abundance (log10)” value read?
The value was 0.

With “CCAACTTCATGGACCGGTTTTCCCGGTAATCCGTATTTGTA (site CCAACTTCTTA)” as the sequence, how does the “recombinant UMI read abundance (log10)” value read?
The value was 0.301.

For “CCAAGCGCATGGACCGGTTTTCCCGGTAATCCGTATTTGTA (site CCAAGCGCTTA)”, which “recombinant UMI read abundance (log10)” value is on record?
The value was 1.3.

For “CCAATCACATGGACCGGTTTTCCCGGTAATCCGTATTTGTT (site CCAATCACTAA)”, which “recombinant UMI read abundance (log10)” value is on record?
The value was 0.84.
